Source: the supplement of paper PMC10307832

Columns and labels:
Assay in all cases: relative viability (nuclei count vs DMSO), 5 days (fraction); higher = more cells survive
Fedratinib + Vorinostat = compound: Cc1cnc(Nc2ccc(OCCN3CCCC3)cc2)nc1Nc1cccc(S(=O)(=O)NC(C)(C)C)c1 [Fedratinib] + O=C(CCCCCCC(=O)Nc1ccccc1)NO [Vorinostat] (partner 1 µM)
How it was run: (§1)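 For relative viability, nuclei counts in treated wells were divided by those in vehicle wells. Lung cancer cell lines had been pin-tool dosed in 1536-well plates the day after seeding and cultured for 5 days, then fixed and stained in one step (final 0.05% Triton X-100, 1% formaldehyde, 1 ug/ml Hoechst) and imaged at 4×. Doses were one drug alone or a fixed anchor-drug dose plus five library-drug doses (not always all listed) in √10 steps, and values are duplicate-plate medians.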

GW-2580 + OSI-027 = compound: COC1=CC=C(C=C1)COC2=C(C=C(C=C2)CC3=CN=C(N=C3N)N)OC [GW-2580] + COc1cccc2cc(-c3nc([C@H]4CC[C@H](C(=O)O)CC4)n4ncnc(N)c34)[nH]c12 [OSI-027] (partner 0.5 µM)
How it was run: as §1

Fedratinib + Pemetrexed = compound: Cc1cnc(Nc2ccc(OCCN3CCCC3)cc2)nc1Nc1cccc(S(=O)(=O)NC(C)(C)C)c1 [Fedratinib] + Nc1nc2[nH]cc(CCc3ccc(C(=O)N[C@@H](CCC(=O)O)C(=O)O)cc3)c2c(=O)[nH]1 [Pemetrexed] (partner 0.2 µM)
How it was run: as §1

GW-2580 = compound: COC1=CC=C(C=C1)COC2=C(C=C(C=C2)CC3=CN=C(N=C3N)N)OC [GW-2580]
How it was run: (§2)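 Cells of lung cancer lines were placed in 1536-well plates and kept overnight at 37 °C. Pinning then delivered five library-drug doses (not always all listed), spaced by √10, onto plates anchored with vehicle, and the cells were left 5 days without changing medium. One step fixed, permeabilised and stained them with Hoechst, and MetaXpress counted nuclei in 4× images. Viability, as a median over plates, is treated-well nuclei divided by vehicle-well nuclei, with acceptance only at control CV below 25% and at least one doubling.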

Fedratinib = compound: Cc1cnc(Nc2ccc(OCCN3CCCC3)cc2)nc1Nc1cccc(S(=O)(=O)NC(C)(C)C)c1 [Fedratinib]
How it was run: as §2

Row | Cell Line | relative viability (Fedratinib + Vorinostat; first compound 0.1 µM) | relative viability (Fedratinib + Vorinostat; first compound 0.3162 µM) | relative viability (Fedratinib + Vorinostat; first compound 1 µM) | relative viability (GW-2580 + OSI-027; first compound 0.08 µM) | relative viability (GW-2580 + OSI-027; first compound 0.8 µM) | relative viability (GW-2580 + OSI-027; first compound 2.53 µM) | relative viability (GW-2580 + OSI-027; first compound 8 µM) | relative viability (Fedratinib + Pemetrexed; first compound 0.1 µM) | relative viability (Fedratinib + Pemetrexed; first compound 0.3162 µM) | relative viability (Fedratinib + Pemetrexed; first compound 1 µM) | relative viability (GW-2580; 0.08 µM) | relative viability (GW-2580; 0.8 µM) | relative viability (GW-2580; 2.53 µM) | relative viability (GW-2580; 8 µM) | relative viability (Fedratinib; 0.1 µM) | relative viability (Fedratinib; 0.3162 µM) | relative viability (Fedratinib; 1 µM)
1 | SK-LU-1 | 0.766 | 0.786 | 0.614 | 0.366 | 0.347 | 0.321 | 0.348 | 1 | 0.906 | 0.837 | 1.09 | 1.12 | 0.826 | 1.14 | 1.06 | 0.906 | 0.868
2 | SK-MES-1 | 1.08 | 1.09 | 0.976 | 0.625 | 0.723 | 0.592 | 0.379 | 1.01 | 0.947 | 0.811 | 1.1 | 1.08 | 0.96 | 0.984 | 0.977 | 1.02 | 0.911
3 | SW 900 | 0.344 | 0.377 | 0.462 | 0.69 | 0.693 | 0.569 | 0.75 | 0.466 | 0.525 | 0.444 | 0.767 | 0.876 | 0.833 | 0.771 | 0.78 | 0.847 | 0.768
4 | SW 1573 | 0.744 | 0.701 | 0.413 | 0.809 | 0.626 | 0.666 | 0.577 | 0.753 | 0.857 | 0.673 | 1.05 | 0.994 | 0.868 | 0.946 | 0.987 | 0.998 | 0.897
